This is an account of results in patent publication US6469120B1, “Water-stabilized organosilane compounds and methods for using the same” (BioShield Technologies, Inc., priority 1997, dated 2002).

Series [1] can be described thus: Stabilization of aqueous Dow Corning 5772 siloxane solutions by polyols, clarity monitored over time. Type of series: physicochemical. The protocol:
However, those skilled in the art will recognize that for practicality and commercial applications, the longer the period for which a stable composition can be achieved the better. Accordingly, a stock of solutions of known concentrations of the stabilizer is prepared in deionized water. A known amount of the solution, and in some cases additional deionized water and the siloxane were mixed in a vial. The vial was sealed with parafilm to prevent evaporation, and stored at ambient temperature.

The conditions of series [2]: no stabilizer; cited from earlier work.
Setting [3] is: 5% siloxane solution with 0.94% to 19% polyol, ambient temperature.

Each structure is given as a SMILES string.

In the case of `O=C(OC[C@H]1O[C@@H](OC(=O)c2cc(O)c(O)c(OC(=O)c3cc(O)c(O)c(O)c3)c2)[C@H](OC(=O)c2cc(O)c(O)c(OC(=O)c3cc(O)c(O)c(O)c3)c2)[C@@H](OC(=O)c2cc(O)c(O)c(OC(=O)c3cc(O)c(O)c(O)c3)c2)[C@@H]1OC(=O)c1cc(O)c(O)c(OC(=O)c2cc(O)c(O)c(O)c2)c1)c1cc(O)c(O)c(OC(=O)c2cc(O)c(O)c(O)c2)c1` [tannic acid], in series [1] (tannic acid siloxane solution), the “stabilization of siloxane solution” value is “not stabilized to any significant degree”.

Regarding `CCCCCCCCCCCCCCCCCC[N+](C)(C)CCC[Si](OC)(OC)OC.[Cl-]` [3-(trimethoxysilyl)propyl-dimethyloctadecyl ammonium chloride], the “time until mixture with water begins to lose effectiveness” value in series [2] is on record as “four to eight”.

As to `O=CC=O` [glyoxal], the “time solution remained clear” value in series [1] (9% siloxane with 4.1% to 18% glyoxal, aqueous) is “at least three”.

For `OC[C@H]1O[C@@](CO)(O[C@H]2O[C@H](CO)[C@@H](O)[C@H](O)[C@H]2O)[C@@H](O)[C@@H]1O` [sucrose], the “time solution remained clear” value in series [1] (setting [3]) is recorded as “at least seven”; in series [1] (another sample at approximately 5% active siloxane), “at least eight”.

For `O=C1O[C@H]([C@@H](O)CO)C(O)=C1O` [L-ascorbic acid], the “time solution remained clear” value in series [1] (10% siloxane solution with 0.85% to 17% L-ascorbic acid) is on record as “at least five”. For the same compound, in series [1] (as much as 18% siloxane with as little as 0.79% L-ascorbic acid), the “clarity of solution after two days” value was “remained clear”.

In the case of `OC[C@@H](O)[C@@H](O)[C@H](O)[C@H](O)CO` [mannitol], in series [1] (setting [3]), the “time solution remained clear” value is given as “seven”. The “solubility of polyol in the siloxane solution” value in series [1] (high mannitol concentration, 5% siloxane solution) was “not completely soluble”.
